Test results from patent publication US4468469A, “Substituted phenylacetic acids and salts as TBP blocking agents in iodothyronine immunoassays” (Miles Laboratories, Inc., priority 1982, dated 1984).

Experiments:
[1] = Optical absorption spectra; format: physicochemical
apoglucose oxidase = apoglucose oxidase (Aspergillus niger, UniProt P13006); experiment: Activation of apoglucose oxidase by FAD-labeled conjugate (ANS comparison); format: biochemical
Procedure: For the purposes of comparison, a series of apoenzyme reactivation measurements were set up with different concentrations of the conventionally used blocking agent ANS. The following reagents were prepared:
0.105M potassium phosphate buffer, pH 7.0
1.1% (w:v) bovine serum albumin
5.26 nM FAD-labeled conjugate, supra
4 μM apoglucose oxidase, supra
50 mM phosphate buffer, pH 7.0
Apoenzyme activity was determined by placing 50 μl of Reagent B in a cuvette and starting the reaction by addition of 1.90 ml of Reagent A. The assay reactions were incubated for 10 minutes at room temperature and the absorbances at 520 nm recorded.

[2] = tested on: anti(thyroxine) antiserum / apoglucose oxidase; experiment: Apoenzyme reactivation immunoassay system for serum thyroxine; format: biochemical; conditions: 2 mM sodium salt of dissociating agent in buffer
Procedure: Standard curves for serum thyroxine were generated using a semiautomated assay protocol on the Gilford Clinical Chemistry Analyzer System 203-S (Gilford Instrument Laboratories, Oberline, OH, USA). […] The FAD-thyroxine conjugate (40 nM in 0.1M sodium phosphate, pH 7.0, 0.01% Triton X-100) as a 0.05 ml aliquot was added to the reaction cup and allowed to equilibrate for 30 seconds. The reaction was initiated by addition of 0.10 ml 1.0 μM apoglucose oxidase, 2 mM 4-aminoantipyrine, 12% glycerol, 80 mM sodium phosphate, pH 7.0. The absorbance at 520 nm was recorded after an 8 minute incubation.

[3] = tested on: serum proteins (thyroxine binding protein, TBP); experiment: Effect of pH on the dissociation of iodothyronine from serum proteins; set-up: species or system human; conditions: over the range pH 6.0-8.0; 2.0 mM
Procedure: Radioactive iodine labeled thyroxine (^125 I-thyroxine obtained from Amersham-Searle, Arlington Heights, IL, USA) was equilibrated with 5 ml of normal human serum for 48 hours at 4° C. […] After 5 minutes of incubation at room temperature, a 165 μl aliquot was applied to a Sephadex® column from a Seralute® thyroxine assay kit (Miles Laboratories, Inc., Ames Division, Elkhart, IN, USA), which had been equilibrated with 0.1M sodium phosphate, pH 7.0. The total radioactivity applied to the columns was measured and the undissociated material was washed through the column with 3 ml of buffer. The columns were counted to determine the percentage of thyroxine dissociated from the serum proteins.
Using the column procedure described in the second study in Example 1, the pH of the 0.1M sodium phosphate was varied and the concentration of the dissociating agent held constant at 2.0 mM. The columns were equilibrated with buffer containing the dissociating agent at the given pH and 165 μl of the serum diluted in buffer at the given pH (as described above) was applied to the column. The total counts were measured and then the columns were washed with buffer at the given pH. The counts remaining on the column represent the percentage of iodothyronine dissociated.

[4] = 50 μM solution in 0.1M phosphate buffer, pH 7.0

Sequence of apoglucose oxidase (P13006 17-605): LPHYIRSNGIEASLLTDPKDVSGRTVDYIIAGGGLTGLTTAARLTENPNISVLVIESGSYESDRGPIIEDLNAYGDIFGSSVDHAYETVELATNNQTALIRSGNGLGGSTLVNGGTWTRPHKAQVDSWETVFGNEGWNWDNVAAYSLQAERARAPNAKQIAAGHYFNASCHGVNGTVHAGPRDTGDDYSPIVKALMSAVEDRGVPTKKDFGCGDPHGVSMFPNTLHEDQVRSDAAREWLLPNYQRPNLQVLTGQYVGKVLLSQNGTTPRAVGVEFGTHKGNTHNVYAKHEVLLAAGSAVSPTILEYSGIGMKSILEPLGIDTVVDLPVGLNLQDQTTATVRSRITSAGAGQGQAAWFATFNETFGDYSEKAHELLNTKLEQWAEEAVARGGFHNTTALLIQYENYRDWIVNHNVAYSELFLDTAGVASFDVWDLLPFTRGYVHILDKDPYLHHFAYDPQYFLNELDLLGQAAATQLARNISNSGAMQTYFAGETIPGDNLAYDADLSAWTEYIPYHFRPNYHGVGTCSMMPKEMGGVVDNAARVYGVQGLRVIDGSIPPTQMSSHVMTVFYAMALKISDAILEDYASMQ

Row | Compound | broad absorption band [1, 4] | wavelength of absorption peak [1, 4] | absorption peak height ([1]; 50 μM solution in 0.1M phosphate buffer, pH 7.0, at about 350 nm) | activity at 100 µM (apoglucose oxidase; 10 min, pH 7, 0.1 mM ANS in Reagent A, room temperature, read-out: Percent Apoglucose Oxidase Activity) [%] | activity at 200 µM (apoglucose oxidase; 10 min, pH 7, 0.2 mM ANS in Reagent A, room temperature, read-out: Percent Apoglucose Oxidase Activity) [%] | activity at 500 µM (apoglucose oxidase; 10 min, pH 7, 0.5 mM ANS in Reagent A, room temperature, read-out: Percent Apoglucose Oxidase Activity) [%] | activity at 1000 µM (apoglucose oxidase; 10 min, pH 7, 1.0 mM ANS in Reagent A, room temperature, read-out: Percent Apoglucose Oxidase Activity) [%] | effect on the recombination reaction of apoglucose oxidase and FAD-labeled conjugate (apoglucose oxidase; ANS concentrations above about 1.0 mM) | λmax ([1]; in 0.1M sodium hydroxide) [nanometers] | λmin ([1]; in 0.1M sodium hydroxide) [nanometers] | ε min (NaOH), extinction coefficient ([1]; in 0.1M sodium hydroxide, at λmin) [M⁻¹ cm⁻¹] | Absorbance (520 nm) ([2]; Thyroxine Standard 0 μg/L) | Absorbance (520 nm) ([2]; Thyroxine Standard 25 μg/L) | Absorbance (520 nm) ([2]; Thyroxine Standard 75 μg/L) | Absorbance (520 nm) ([2]; Thyroxine Standard 125 μg/L) | Absorbance (520 nm) ([2]; Thyroxine Standard 200 μg/L) | pH dependence of the dissociation of iodothyronine from serum proteins [3]
1 | O=S(=O)(O)c1cccc2cccc(Nc3ccccc3)c12 [ANS, 8-anilino-1-naphthalenesulfonic acid] | 300-400 nm | about 350 nm | 0.5 | 64 | 46 | 13 | 0 | totally inhibit |  |  |  |  |  |  |  |  | 
2 | O=C(O)Cc1ccccc1Nc1c(Cl)cccc1Cl [Diclofenac, 2-(2,6-dichlorophenylamino)phenylacetic acid] |  |  |  |  |  |  |  |  | 275 | 248 | 6400 | 0.619 | 0.620 | 0.647 | 0.678 | 0.719 | independent of pH
